# Measured values published in US20200231545A1, “CHARGED ION CHANNEL BLOCKERS AND METHODS FOR USE THEREOF” (President and Fellows of Harvard College, priority 2019, published 2020).
# Where “and” joins values, the source holds several entries; their conditions need not be identical. Equal entries are not always repeated.
# Tests used:
# human Nav1.7 channels = molecular target: T1, human Nav1.7 channels (Homo sapiens, UniProt Q15858); assay: Whole-cell patch clamp, use-dependent block of sodium current, compound dialyzed inside cells; format: cell-based; conditions: 10 micromolar intracellular; stimulation series 0.05 to 10 Hz; HEK293 hNav1.7
# T1 construct: expressed in transfected cells
# T1 sequence (Q15858 whole entry): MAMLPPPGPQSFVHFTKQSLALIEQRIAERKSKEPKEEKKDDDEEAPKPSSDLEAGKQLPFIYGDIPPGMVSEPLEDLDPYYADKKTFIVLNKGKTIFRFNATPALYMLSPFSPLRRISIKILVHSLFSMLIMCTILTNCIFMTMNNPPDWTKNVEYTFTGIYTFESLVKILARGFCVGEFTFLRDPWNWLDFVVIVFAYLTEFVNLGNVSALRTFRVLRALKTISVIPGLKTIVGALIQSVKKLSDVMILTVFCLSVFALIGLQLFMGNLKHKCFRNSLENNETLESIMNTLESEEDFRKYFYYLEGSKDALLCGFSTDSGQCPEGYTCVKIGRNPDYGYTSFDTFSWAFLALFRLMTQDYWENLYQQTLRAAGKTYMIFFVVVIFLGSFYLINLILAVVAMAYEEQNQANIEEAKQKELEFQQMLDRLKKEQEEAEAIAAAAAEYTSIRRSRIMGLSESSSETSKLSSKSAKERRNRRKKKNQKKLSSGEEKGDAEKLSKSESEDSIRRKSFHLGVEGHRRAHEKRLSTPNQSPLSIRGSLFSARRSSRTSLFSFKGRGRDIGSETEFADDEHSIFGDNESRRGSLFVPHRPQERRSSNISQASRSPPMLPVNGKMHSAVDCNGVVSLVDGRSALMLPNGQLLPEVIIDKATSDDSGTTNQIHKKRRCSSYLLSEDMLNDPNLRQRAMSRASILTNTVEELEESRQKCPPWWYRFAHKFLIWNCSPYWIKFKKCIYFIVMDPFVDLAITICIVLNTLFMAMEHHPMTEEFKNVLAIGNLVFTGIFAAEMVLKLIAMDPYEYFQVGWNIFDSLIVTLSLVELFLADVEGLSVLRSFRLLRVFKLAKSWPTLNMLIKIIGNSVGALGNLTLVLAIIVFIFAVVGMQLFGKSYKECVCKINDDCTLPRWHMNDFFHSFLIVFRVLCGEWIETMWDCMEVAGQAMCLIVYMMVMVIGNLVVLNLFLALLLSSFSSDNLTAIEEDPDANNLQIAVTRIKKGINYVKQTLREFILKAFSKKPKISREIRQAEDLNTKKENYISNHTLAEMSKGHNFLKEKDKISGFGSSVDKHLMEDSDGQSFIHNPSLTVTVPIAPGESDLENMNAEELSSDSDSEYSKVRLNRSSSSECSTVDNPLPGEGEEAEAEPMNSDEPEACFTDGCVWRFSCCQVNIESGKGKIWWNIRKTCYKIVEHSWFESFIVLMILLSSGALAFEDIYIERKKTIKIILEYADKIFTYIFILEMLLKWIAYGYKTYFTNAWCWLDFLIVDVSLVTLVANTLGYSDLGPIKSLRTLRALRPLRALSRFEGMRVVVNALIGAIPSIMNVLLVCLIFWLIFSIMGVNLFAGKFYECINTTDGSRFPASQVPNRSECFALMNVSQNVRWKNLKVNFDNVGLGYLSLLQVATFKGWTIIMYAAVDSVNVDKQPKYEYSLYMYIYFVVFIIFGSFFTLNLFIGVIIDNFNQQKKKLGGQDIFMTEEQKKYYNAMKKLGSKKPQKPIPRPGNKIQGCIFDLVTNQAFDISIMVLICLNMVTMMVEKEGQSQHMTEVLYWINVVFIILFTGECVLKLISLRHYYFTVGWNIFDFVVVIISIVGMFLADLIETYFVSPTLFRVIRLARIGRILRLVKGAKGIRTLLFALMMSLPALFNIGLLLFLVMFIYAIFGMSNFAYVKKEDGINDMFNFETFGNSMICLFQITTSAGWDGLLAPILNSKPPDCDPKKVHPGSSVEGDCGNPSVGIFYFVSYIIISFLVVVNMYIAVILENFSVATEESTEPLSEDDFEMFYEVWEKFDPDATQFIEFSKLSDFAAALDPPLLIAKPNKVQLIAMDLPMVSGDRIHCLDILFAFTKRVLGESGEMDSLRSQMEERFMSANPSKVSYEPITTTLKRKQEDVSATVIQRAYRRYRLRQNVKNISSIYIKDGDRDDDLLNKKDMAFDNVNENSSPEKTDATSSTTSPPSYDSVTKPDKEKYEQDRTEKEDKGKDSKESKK
# Protocol: Whole-cell recordings were made of currents carried by voltage-activated sodium channels in HEK293 cells stably expressing human Nav1.7 channels. Recordings were made using patch pipettes with resistances of 2-3.5 MO when filled with internal solution, consisting of 61 mM CsF, 61 mM CsCl, 9 mM NaCl, 1.8 mM MgCl2, 9 mM EGTA, 14 mM creatine phosphate (tris salt), 4 mM MgATP, and 0.3 mM GTP (tris salt), 9 mM HEPES, pH adjusted to 7.2 with CsOH. The shank of the electrode was wrapped with Parafilm in order to reduce capacitance and allow optimal series resistance compensation without oscillation. Seals were obtained and the whole-cell configuration established with cells in Tyrode's solution (155 mM NaCl, 3.5 mM KCl, 1.5 mM CaCl2), 1 mM MgCl2, 10 mM HEPES, 10 mM glucose, pH adjusted to 7.4 with NaOH) with 10 mM TEACl. To ensure complete dialysis with pipette solution containing the test compounds, recordings began after 5 to 10 minutes after establishment of the whole-cell configuration.
# Currents were recorded at room temperature (21-23° C.) with an Axopatch 200 amplifier or […] amplifier and filtered at 5-10 kHz with a low-pass Bessel filter. The amplifier was tuned for partial compensation of series resistance (typically 70-80% of a total series resistance of 4-10 MO). Currents were digitized using a Digidata 1322A data acquisition interface controlled by pClamp9 or pClamp10 software (Axon Instruments) and analyzed using programs written in Igor Pro 4.0 (Wavemetrics, Lake Oswego, Oreg.). Currents were corrected for linear capacitative and leak currents determined using 5 mV hyperpolarizations delivered from the resting potential (usually −80 or −100 mV) and then appropriately scaled and subtracted.
# Sodium currents were evoked by 30-msec depolarizations from −100 mV to −20 mV. To assay use-dependent block, pulses were delivered at series of increasing rates: 0.05 Hz for 1-min, 0.33 Hz for 1-min, 1 Hz for 1-min, 3 Hz for 1-min, 5 Hz for 30 seconds, 10 Hz for 30 seconds, with 1 minute rest between each series of pulses. […]
# Nav1.5 sodium channels = molecular target: T2, Nav1.5 sodium channels (Homo sapiens, UniProt Q14524); assay: Thallium flux assay, extracellular block of sodium channel in HEK293 cells; format: cell-based; conditions: HEK cells
# T2 construct: expressed in transfected cells
# T2 sequence (Q14524 whole entry): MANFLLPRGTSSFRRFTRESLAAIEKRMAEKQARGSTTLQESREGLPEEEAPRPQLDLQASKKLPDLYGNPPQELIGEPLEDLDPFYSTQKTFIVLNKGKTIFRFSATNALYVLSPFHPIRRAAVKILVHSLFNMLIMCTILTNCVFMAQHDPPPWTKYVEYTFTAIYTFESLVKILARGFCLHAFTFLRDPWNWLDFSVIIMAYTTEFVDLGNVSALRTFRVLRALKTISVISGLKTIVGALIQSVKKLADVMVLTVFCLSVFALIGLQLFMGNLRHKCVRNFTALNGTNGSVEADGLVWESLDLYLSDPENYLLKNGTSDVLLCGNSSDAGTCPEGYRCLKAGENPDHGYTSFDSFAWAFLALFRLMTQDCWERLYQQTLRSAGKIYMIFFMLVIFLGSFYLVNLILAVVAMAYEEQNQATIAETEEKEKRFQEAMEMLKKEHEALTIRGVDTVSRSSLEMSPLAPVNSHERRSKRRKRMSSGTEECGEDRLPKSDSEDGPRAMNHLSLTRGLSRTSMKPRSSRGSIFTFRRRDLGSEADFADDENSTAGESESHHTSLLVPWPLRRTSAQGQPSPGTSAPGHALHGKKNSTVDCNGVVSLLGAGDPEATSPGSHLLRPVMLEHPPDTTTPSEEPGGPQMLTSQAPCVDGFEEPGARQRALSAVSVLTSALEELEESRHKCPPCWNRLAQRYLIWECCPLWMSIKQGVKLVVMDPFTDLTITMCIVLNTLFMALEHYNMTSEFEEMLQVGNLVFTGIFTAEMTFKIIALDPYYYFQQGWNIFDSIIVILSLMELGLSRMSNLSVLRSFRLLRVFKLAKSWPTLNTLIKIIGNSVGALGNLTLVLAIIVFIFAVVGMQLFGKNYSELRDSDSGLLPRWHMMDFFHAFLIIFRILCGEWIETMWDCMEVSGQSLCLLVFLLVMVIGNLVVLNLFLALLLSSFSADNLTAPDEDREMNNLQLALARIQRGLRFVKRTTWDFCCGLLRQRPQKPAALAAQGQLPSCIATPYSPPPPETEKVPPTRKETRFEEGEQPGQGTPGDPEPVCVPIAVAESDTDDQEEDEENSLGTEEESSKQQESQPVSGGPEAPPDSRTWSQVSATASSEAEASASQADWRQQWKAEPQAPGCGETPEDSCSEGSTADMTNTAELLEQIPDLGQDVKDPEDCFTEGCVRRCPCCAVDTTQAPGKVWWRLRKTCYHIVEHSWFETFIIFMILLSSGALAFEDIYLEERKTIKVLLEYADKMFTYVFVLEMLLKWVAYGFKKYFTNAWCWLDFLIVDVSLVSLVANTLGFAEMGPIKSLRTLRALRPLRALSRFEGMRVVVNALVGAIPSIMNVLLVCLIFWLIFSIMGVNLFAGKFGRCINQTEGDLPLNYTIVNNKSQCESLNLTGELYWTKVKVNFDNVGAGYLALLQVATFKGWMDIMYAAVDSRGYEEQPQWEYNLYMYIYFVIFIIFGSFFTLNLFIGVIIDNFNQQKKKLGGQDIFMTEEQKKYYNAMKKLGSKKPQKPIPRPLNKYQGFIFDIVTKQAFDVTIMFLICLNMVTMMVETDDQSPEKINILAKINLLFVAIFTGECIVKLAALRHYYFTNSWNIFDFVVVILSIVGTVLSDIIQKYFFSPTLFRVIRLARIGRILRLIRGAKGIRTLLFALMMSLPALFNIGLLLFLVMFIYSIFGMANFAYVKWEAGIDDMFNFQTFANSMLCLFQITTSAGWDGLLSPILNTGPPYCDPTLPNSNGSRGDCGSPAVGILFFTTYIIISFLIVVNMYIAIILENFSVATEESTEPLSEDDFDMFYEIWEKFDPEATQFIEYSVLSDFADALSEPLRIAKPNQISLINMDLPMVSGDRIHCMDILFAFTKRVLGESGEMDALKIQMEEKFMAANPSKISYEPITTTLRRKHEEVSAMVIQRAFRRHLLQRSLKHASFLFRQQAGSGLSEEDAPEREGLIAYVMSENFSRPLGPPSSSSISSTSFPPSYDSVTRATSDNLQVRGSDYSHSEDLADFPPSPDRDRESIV
# Protocol: (§1) Charged sodium channel blockers were tested for extracellular block of voltage-gated sodium channels in a thallium flux assay. Briefly, human embryonic kidney (HEK293) cells stably expressing either the Nav1.5 or Nav1.7 sodium channels were plated in 384 well plates. After overnight culture at 37° C., the cell culture medium was replaced the thallium-sensitive FluxOR dye (FluxOR assay kit, Thermo Fisher). Following a 60 minute incubation at room temperature, the dye-loading solution was replaced with assay buffer and the plates were loaded into a FDSS 7000EX multi-well plate reader (Hamamatsu). Dye fluorescence was measured using Fluo-4 filters (excitation 470 nm, emission 540 nm) at 1 Hz. Baseline fluorescence was measured for 30 s, followed by the addition of 15 μL/well of charged sodium channel blocker compounds. 10 minutes after compound addition, the cells were stimulated with a Tl^+ stimulus buffer and fluorescence measured. Tetraethylammonium (TEA) was used to block Kv channels and veratridine to block Nav channel inactivation. The fluorescence data was normalized with respect to no veratridine stimulus buffer control in order to isolate and measure the Nav channel component of the thallium flux.
# Nav1.7 sodium channels = molecular target: T3, Nav1.7 sodium channels (Homo sapiens, UniProt Q15858); assay: as above; format: cell-based
# T3 construct: expressed in transfected cells
# T3 sequence (Q15858 whole entry): as the sequence (Q15858 whole entry) above
# Protocol: as §1
# [1] = system: endogenous Nav currents in TRPV1 expressing DRG neurons; assay: Patch clamp of sodium currents in DRG neurons after pretreatment with capsaicin + blocker; format: cell-based, mouse; conditions: 100 micromolar with 300 nM capsaicin for 30 minutes, then washed off
# Protocol: Charged sodium channel blockers were tested for intracellular block of voltage-gated sodium currents after entry through activated TRPV1 channels in dissociated mouse dorsal root ganglia (DRG) neurons in vitro. DRG neurons from 8-week-old C57/B16 mice were removed and placed in DMEM containing 1% penicillin-streptomycin (Sigma), then treated for 90 minutes with 5 mg/mL collagenase, 1 mg/mL Dispase II (Roche). Cells were triturated in the presence of DNase I […] (50 U), centrifuged through 10% BSA (Sigma), resuspended in 1 mL of Neurobasal medium (Sigma)+1X B27 supplement (Thermo Fisher) and 1% penicillin-streptomycin, and plated onto 35-mm tissue culture dishes (Becton Dickinson) coated with 20 μg/mL laminin, at 8,000-9,000 cells per dish. Cultures were incubated at 37° C. under 5% CO2. Recordings were made at room temperature within 24 hours of plating. The DRG neurons were treated with 300 nM capsaicin alone or 300 nM capsaicin+100 μM charged sodium channel blocker in external solution for 30 minutes, after which the blocker was washed off with fresh external solution. Whole-cell voltage-clamp recordings of sodium currents were performed in small diameter DRG neurons and then the expression of TRPV1 measured by perfusion of 1 μM capsaicin. […]
# [2] = system: citric acid induced cough; assay: Citric acid induced cough in ovalbumin sensitized guinea pigs, inhaled treatment; format: in vivo, guinea pig; conditions: for inhibition of cough: inhaled one hour before 400 mM citric acid challenge, versus vehicle group; for Cough Count: total cough count of each individual animal, inhaled, one hour before citric acid
# Protocol: Dunkin Hartley Guinea pigs were used in this study (male and female). On Day 0 all animals were sensitized with an intraperitoneal and subcutaneous injection of 50 mg chicken egg albumin (ovalbumin). Animals were administered 1 mL of a 50 mg/mL ovalbumin in 0.9% w/v saline solution via the intraperitoneal route and 0.5 mL of the same solution into 2 separate subcutaneous sites (1 mL in total divided between the left and right flank). All animals were administered a single intraperitoneal dose of pyrilamine (15 mg/kg) at a dose volume of 1 mL/kg approximately 30 minutes prior to ovalbumin challenge on Day 14 to inhibit histamine-induced bronchospasm. On Day 14, animals were challenged with aerosolised ovalbumin in 0.9% w/v saline (3 mg/mL) for 15 min.
# Animals were placed in groups in an acrylic box. Then 8 mL of ovalbumin in saline was placed in each of two jet nebulisers (Sidestream®). Compressed air was passed through each nebuliser at approximately 6 L/min and the output of the nebulisers passed into the box containing the animals. On Day 15, approximately 24 hours after the inflammatory challenge with ovalbumin, animals were dosed with either vehicle, compound 1, or compound 2 by inhalation. One hour following the end of vehicle, compound 1, or compound 2 administration on Day 15, animals were placed into a whole body plethysmograph connected to a Buxco Finepointe system. All animals were then exposed to nebulized 400 mM citric acid for 7 minutes via an Aeroneb® nebuliser.
# Cough counts and respiratory parameters (respiratory rate, tidal volume, minute volume and Penh) were recorded throughout the exposure period and for 10 minutes following the end of nebulization period.
Compound,"sodium current remaining after use-dependent block, % of the initial value (human Nav1.7 channels)","extracellular block of Nav1.5 (Nav1.5 sodium channels; doses of up to 1 mM, applied extracellularly)","extracellular concentration at which dose dependent block of Nav1.5 starts (Nav1.5 sodium channels; thallium flux, FIG. 3)","Nav subtype selectivity (Nav1.7 sodium channels; Nav1.5 versus Nav1.7, thallium flux)","extracellular block of Nav1.7 (Nav1.7 sodium channels; doses of up to 1 mM, applied extracellularly, HEK cells)","extracellular concentration at which dose dependent block of Nav1.7 starts (Nav1.7 sodium channels; thallium flux, HEK cells, FIG. 4)",sodium currents in DRG neurons versus capsaicin alone [1],inhibition of cough [2],Cough Count [2]
"CCC[N+]1(C(CC)C(=O)Nc2c(C)cccc2C)CCCCC1 (centres unmarked) [Compound 1, 1-(1-(2,6-dimethylphenylamino)-1-oxobutan-2-yl)-1-propylpiperidinium chloride]",about 15%,did not exhibit significant extracellular block,≥ 10 millimolar,did not display any Nav subtype selectivity,did not exhibit significant extracellular block,≥ 10 millimolar,considerably smaller,81%,4 (2×) and 0 (7×) and 2 and 7 and 6
"CC[N+](CC)(CC)CC(=O)Nc1c(C)cccc1C [QX-314, reference compound]",about 62%,–,–,–,–,–,robust block,–,–
"CCCC(C(=O)Nc1c(C)cccc1C)[N+]1(CC)CCCCC1 (centres unmarked) [Compound 2, 1-(1-((2,6-dimethylphenyl)amino)-1-oxopentan-2-yl)-1-ethylpiperidin-1-ium]",about 14%,–,–,–,–,–,–,65%,8 and 0 (5×) and 2 (2×) and 13 and 11 and 6 and 1
